The experiment has as its target binding of tritiated LTB4 to guinea pig lung membranes (Cavia porcellus, UniProt H0VYV8). Briefly: biochemical. The following applies: read-out: pKi (mean -log Ki) (converted).

Counter-ions that a name gives are not always drawn.

As usually defined, the Ki is the dissociation constant of the complex between target and ligand, obtained from inhibition or displacement.

Chain of binding of tritiated LTB4 to guinea pig lung membranes (H0VYV8 1-348): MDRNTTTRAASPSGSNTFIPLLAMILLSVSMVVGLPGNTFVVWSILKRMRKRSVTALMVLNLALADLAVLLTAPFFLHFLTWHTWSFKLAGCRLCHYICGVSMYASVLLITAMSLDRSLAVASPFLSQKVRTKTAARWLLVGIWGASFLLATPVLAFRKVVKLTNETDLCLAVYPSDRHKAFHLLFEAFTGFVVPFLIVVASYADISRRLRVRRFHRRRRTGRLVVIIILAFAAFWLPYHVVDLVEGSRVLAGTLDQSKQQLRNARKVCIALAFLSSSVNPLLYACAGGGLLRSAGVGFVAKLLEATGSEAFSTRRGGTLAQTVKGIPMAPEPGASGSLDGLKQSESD
Protocol: The effectiveness of compounds of Formula I to inhibit the binding of tritiated LTB4 to guinea pig lung membranes was determined as follows.
The binding reaction was terminated by the addition of 1 mL ice cold wash buffer (25 mM Tris-HCl, pH 7.5) followed immediately by vacuum filtration over Whatman GF/C glass fiber filters using a Brandel (Gaithersburg, Md.) 48 place harvester. The filters were washed three times with 1 mL of wash buffer. Retained radioactivity was determined by liquid scintillation counting at 50% counting efficiency using Ready Protein Plus cocktail (Beckman, Fullerton, Calif.). Nondisplaceable binding was determined in the presence of 1 μM LTB4 and was usually less than 10% of total binding. […] The data reported below is the mean -log Ki, otherwise known as the pKi, for n experiments.

As to `CCc1cc(-c2ccccc2)c(O)cc1OCCCOc1cc(-c2ccccc2)ccc1CCC(=O)O` [Example 62, 3-[3-(2-Ethyl-5-hydroxy-4-phenylphenoxy)propoxy][1,1'-biphenyl]-4-propanoicacid disodium salt monohydrate], the Ki is 57.5 nM. For `CCCc1c(OCCCOc2cc(O)c(-c3ccccc3)cc2CC)cccc1Oc1ccccc1-c1nnn[nH]1` [Example 63, 5-Ethyl-4-[3-[2-propyl-3-[2-(2H-tetrazol-5-yl)phenoxy]phenoxy]propoxy][1,1'-biphenyl]-2-ol disodium salt sesquihydrate], the Ki was 11.5 nM.

`CCc1cc(-c2ccccc2)c(O)cc1OCCCOc1ccc2c(=O)c3ccccc3oc2c1CCC(=O)O` [Example 64, 3-[4-[3-[3-(2-Ethyl-5-hydroxy-4-phenylphenoxy)propoxy]-9-oxo-9H-xanthene]]propanoicacid sodium salt hemihydrate]: the Ki was 14.1 nM. The result for `CCCc1c(OCCCOc2cc(O)c(-c3ccccc3)cc2CC)cccc1Oc1cccc(F)c1C(=O)O` [Example 65, 2-Fluoro-6-[2-propyl-3-[3-(2-ethyl-5-hydroxy-4-phenylphenoxy)propoxy]phenoxy]benzoic acid disodium salt] reads 12.3 nM; that for `CCc1cc(-c2ccc(F)cc2)c(O)cc1OCCCOc1ccc2c(=O)c3cc(C(=O)O)ccc3oc2c1CCC(=O)O` [Example 67, 3-[4-[7-Carboxy-9-oxo-3-[3-[2-ethyl-4-(4-fluorophenyl)-5-hydroxyphenoxy]propoxy]-9H-xanthene]] propanoic acid disodium salt trihydrate], 0.024 nM. Take `CCc1cc(-c2ccc(F)cc2)c(O)cc1OCCCOc1ccc2c(=O)c3ccccc3oc2c1CCC(=O)O` [Example 68, 3-[4-[9-Oxo-3-[3-[2-ethyl-4-(4-fluorophenyl)-5-hydroxyphenoxy]propoxy]-9H-xanthene]]propanoic acid]: the Ki was 3.47 nM. For the molecule `CCc1cc(-c2ccc(F)cc2)c(O)cc1OCCCOc1ccc(NC(=O)CCCC(=O)N2CCOCC2)cc1CCC(=O)O` [Example 69], the Ki is 12.9 nM. Consider `CCCc1c(OCCCOc2cc(O)c(-c3ccc(F)cc3)cc2CC)cccc1Oc1cccc(F)c1C(=O)O` [Example 70, 2-Fluoro-6-[2-propyl-3-[3-[2-ethyl-5-hydroxy-4-(4-fluorophenyl)phenoxy]propoxy]phenoxy]benzoic acid disodium salt hydrate], for which the Ki is 8.13 nM. On to `CCCc1c(OCCCOc2cc(O)c(-c3ccc(F)cc3)cc2CC)cccc1Oc1cc(F)ccc1C(=O)O` [Example 71, 4-Fluoro-2-[2-propyl-3-[3-[2-ethyl-5-hydroxy-4-(4-fluorophenyl)phenoxy]propoxy]phenoxy]benzoic acid], for which the Ki is 17 nM. Then `CCCc1c(OCCCCCOc2cc(O)c(-c3ccc(F)cc3)cc2CC)cccc1Oc1ccccc1C(=O)O` [Example 72, 2-[2-Propyl-3-[5-[2-ethyl-5-hydroxy-4-(4-fluorophenyl)phenoxy]pentoxy]phenoxy]benzoic acid], with 6.61 nM; and `CCCc1c(OCCCCOc2cc(O)c(-c3ccc(F)cc3)cc2CC)cccc1Oc1ccccc1C(=O)O` [Example 73, 2-[2-Propyl-3-[4-[2-ethyl-5-hydroxy-4-(4-fluorophenyl)phenoxy]butoxy]phenoxy]benzoic acid sesquihydrate], with 17.8 nM. On to `CCc1cc(-c2ccc(F)cc2)c(O)cc1OCCCOc1cccc(Oc2ccccc2C(=O)O)c1CC(C)C` [Example 74, 2-[2-(2-Methylpropyl)-3-[3-[2-ethyl-5-hydroxy-4-(4-fluorophenyl)phenoxy]propoxy]phenoxy]benzoic acid], for which the Ki is 13.8 nM. Consider `CCCCc1c(OCCCOc2cc(O)c(-c3ccc(F)cc3)cc2CC)cccc1Oc1ccccc1C(=O)O` [Example 75, 2-[2-Butyl-3-[3-[2-ethyl-5-hydroxy-4-(4-fluorophenyl)phenoxy]propoxy]phenoxy]benzoic acid hydrate], for which the Ki is 16.2 nM.

For the origin of these results see US5462954A, “Substituted phenyl phenol leukotriene antagonists” (Eli Lilly and Company, priority 1994, dated 1995).
